Experimental data from US9808477B2 (Macau University of Science and Technology, priority 2015, dated 2017).
Read-outs that look alike come from different tables or passages of the source.

Assays:
Format in all cases: cell-based, human
[1] = system: A2780/T cells (PTX-resistant, ABCB1-overexpressing ovarian cancer cells); test: cells; details: for IC50: read-out: IC50 ± SD
Protocol: (§1) Sulphorhodamine B (SRB) assays were used for cell density determination, based on sensitive measure of total cellular protein, which perform similarly compared with other proliferation assays such as MTT assay. Briefly, cells were seeded into flat bottomed 96-well plates at an initial density of 7.5×10^3 per well before treatment. […] After removing the medium, cells were fixed in 10% trichloroacetic acid for 1 h at 4° C. and then washed with water five times. 0.4% SRB dissolved in 1% v/v acetic acid was added and incubated […] for staining. The cells were quickly washed with 1% acetic acid and left to dry overnight. The protein bound SRB was solubilized by adding 200 μl 10 mM Tris buffer per well and was measured at wavelengths 490 nm using a plate reader (Spectra MAX 250; Molecular Devices, Sunnyvale, Calif.). The optical density of SRB in each well is directly proportional to the cell number.

[2] = system: A549/T cells (PTX-resistant, ABCB1-overexpressing NSCLC cells); test: SRB cell cytotoxicity / MDR reversal assay; details: for fold reversal: drug alone (reference)
Protocol: as §1

A2780 cells = test: Cell cycle analysis (PI, flow cytometry); details: A2780, PTX 0.01 μM
A2780/T cells [3] = test: Apoptosis analysis by Annexin-V/PI double staining; details: 9 μM nobiletin alone or 0.94 μM PTX alone
Protocol: After treatment, 1×10^6 cells were collected, washed and suspended in 100 μl of binding buffer (10 mM N-2-hydroxyethylpiperazine-N,-2-ethanesulfonic acid/NaOH, 140 mM NaCl, 2.5 mM CaCl2, pH 7.4). Apoptotic cells were identified by double supravital staining with 5 μl recombinant FITC (fluorescein isothiocyanate)-conjugated Annexin-V and 5 μl PI (50 μg/ml). The cells were stained for […] at room temperature in the dark, and analyzed by fluorescence-activated cell sorting cater-plus flow cytometry. Data acquisition and analysis were performed in BD FACS Aria with FlowJo software.

A2780/T cells [4] = test: Cell cycle analysis (PI, flow cytometry); details: 0.94 μM PTX, no nobiletin
Protocol: A2780/T cells were harvested 24 hours, 48 hours, or 72 hours after treatment and washed twice with ice-cold PBS. The cells were fixed and permeabilized with 70% ice-cold ethanol overnight at 4° C. or 2 h at −20° C. After one additional wash in PBS, cells were stained with a staining solution containing propidium iodide (PI) ([…]) and RNase A (250 μg/ml) for 30 min at room temperature. They were then pelleted, washed and suspended in PBS to a final concentration of 1×10^6/ml and analyzed by flow cytometry BD FACS Aria (BD Biosciences, San Jose, Calif.).

A2780/T cells [5] = test: Colony formation assay; details: 9 μM nobiletin alone or 0.94 μM PTX alone, 12 days
From the text: The A2780/T cells were trypsinized and plated in fresh culture medium at a density of 600 cells/9.6 cm^2 plate. Subsequently, the cells were fixed with 70% ethanol and stained with crystal violet (0.5% in ethanol). The plates were rinsed with phosphate buffered saline (PBS), and the colony numbers were counted using the software of Quantity one-Colony counting.

A2780/T cells [6] = test: Combination index, Chou-Talalay method (CalcuSyn); details: Homo sapiens, A2780, read-out: Dose PTX at Fa = 0.5 (ED50), CalcuSyn simulation, A2780/T; PTX dose, alone or in the combination
A2780/T cells [7] = test: Intracellular accumulation of doxorubicin and Flutax-2; details: 8 h, 4.5 μM nobiletin or 20 μM QND
[8] = A2780/T, 48 h, drug +0.5 μM nobiletin (N)
[9] = A2780/T, 48 h, drug +1.5 μM nobiletin (N)
[10] = A2780/T, 48 h, drug +4.5 μM nobiletin (N)
[11] = Homo sapiens, A2780, 48 h, A2780/T, 48 h, SRB, drug alone (no nobiletin)
[12] = Homo sapiens, A549, 48 h, 48 h, SRB, drug alone (no nobiletin)

Row | SMILES | fold reversal [1] [fold] | IC50 [1, 8] [µM] | IC50 [1, 9] [µM] | IC50 [1, 10] [µM] | IC50 [1, 11] [µM] | IC50 [2, 12] [µM] | Fold reversal (IC50 without / with nobiletin) ([2]; drug +0.5 μM nobiletin) [fold] | Fold reversal (IC50 without / with nobiletin) ([2]; drug +1.5 μM nobiletin) [fold] | Fold reversal (IC50 without / with nobiletin) ([2]; drug +4.5 μM nobiletin) [fold] | IC50 ([2]; drug +4.5 μM nobiletin (N)) [µM] | fold reversal [2] [fold] | IC50 ([1]; Homo sapiens, A2780, 48 h) [µM] | IC50 ([2]; drug +0.5 μM nobiletin (N)) [µM] | IC50 ([2]; drug +1.5 μM nobiletin (N)) [µM] | degree of resistance: mean IC50 in A2780/T cells relative to A2780 [1] [fold] | other results
1 | O=c1[nH]cc(F)c(=O)[nH]1 [5-Fluorouracil] | 1.00 | 132 ± 23.8 | 79.8 ± 9.18 | 26.1 ± 1.77 | 159 ± 18.3 | 134 ± 10.9 | 1.26 ± 0.01 | 1.99 ± 0.01 | 7.94 ± 0.02 | 16.8 ± 1.36 | 1.00 | – | – | – | – | Fold reversal (IC50 without / with nobiletin) ([2]; drug +4.5 μM nobiletin, listed as 5-fluorouracil): 7.94 fold
2 | COc1cccc2c1C(=O)c1c(O)c3c(c(O)c1C2=O)C[C@@](O)(C(C)=O)C[C@@H]3O[C@H]1C[C@H](N)[C@H](O)[C@H](C)O1 [Daunorubicin] | 1.00 | – | – | – | – | 10.1 ± 1.63 | 1.68 ± 0.14 | 3.55 ± 0.01 | 14.17 ± 0.04 | 0.71 ± 0.13 | 1.00 | 11.9 ± 0.97 | 5.97 ± 0.49 | 2.84 ± 0.46 | – | Fold reversal (IC50 without / with nobiletin) ([2]; drug +4.5 μM nobiletin, listed as daunorubicin): 14.17 fold
3 | CC(=O)O[C@@]12CO[C@@H]1C[C@H](O)[C@@]1(C)C(=O)[C@H](O)C3=C(C)[C@@H](OC(=O)[C@H](O)[C@@H](NC(=O)OC(C)(C)C)c4ccccc4)C[C@@](O)([C@@H](OC(=O)c4ccccc4)[C@H]21)C3(C)C [Docetaxel] | 1.00 | 8.97 ± 1.46 | – | 1.13 ± 0.18 | 17.9 ± 2.89 | 13.4 ± 1.09 | 1.59 ± 0.01 | 5.05 ± 0.82 | 19.18 ± 4.59 | 0.71 ± 0.11 | 1.00 | – | 8.43 ± 0.69 | 2.67 ± 0.22 | – | IC50 ([1]; Homo sapiens, A2780, 48 h, A2780/T, 48 h, drug +1.5 μM nobiletin (N)): 3.57 ± 0.58 µM; Fold reversal (IC50 without / with nobiletin) ([2]; drug +4.5 μM nobiletin, listed as docetaxel): 19.18 fold
4 | COc1cccc2c1C(=O)c1c(O)c3c(c(O)c1C2=O)C[C@@](O)(C(=O)CO)C[C@@H]3O[C@H]1C[C@H](N)[C@H](O)[C@H](C)O1 [Doxorubicin] | 1.00 | 3.77 ± 0.3 | 1.89 ± 0.16 | 1.13 ± 0.18 | 5.97 ± 0.49 | 5.97 ± 0.49 | 1.42 ± 0.23 | 2.25 ± 0.37 | 5.01 ± 0.01 | 1.19 ± 0.1 | 1.00 | – | 4.23 ± 0.35 | 2.67 ± 0.22 | 158 | IC50 ([1]; A2780/T, 48 h, drug +9 μM nobiletin (N)): 0.38 ± 0.04 µM; Fold reversal (IC50 without / with nobiletin) ([2]; drug +4.5 μM nobiletin, listed as doxorubicin): 5.01 fold
5 | CC(=O)O[C@H]1C(=O)[C@@]2(C)[C@H]([C@H](OC(=O)c3ccccc3)[C@]3(O)C[C@H](OC(=O)[C@H](O)[C@@H](NC(=O)c4ccccc4)c4ccccc4)C(C)=C1C3(C)C)[C@]1(OC(C)=O)CO[C@@H]1C[C@@H]2O [Paclitaxel] | 1.00 | – | – | – | – | 1.89 ± 0.15 | 2.51 ± 0.01 | 5.65 ± 0.8 | 22.33 ± 3.6 | 0.09 ± 0.01 | 1.00 | 2.51 | 0.75 ± 0.06 | 0.34 ± 0.02 | 501 | Fold reversal (IC50 without / with nobiletin) ([2]; drug +0.5 μM nobiletin, listed as PTX): 2.51 fold; Fold reversal (IC50 without / with nobiletin) ([2]; drug +1.5 μM nobiletin, listed as PTX): 5.65 fold; Fold reversal (IC50 without / with nobiletin) ([2]; drug +4.5 μM nobiletin, listed as PTX): 22.33 fold; Fold reversal (IC50 without / with nobiletin) ([2]; drug +4.5 μM nobiletin, listed as paclitaxel): 22.33 fold; Fold reversal (IC50 without / with nobiletin) ([2]; drug +9 μM nobiletin): 62.88 ± 0.98 fold; IC50 ([2]; drug +9 μM nobiletin (N)): 0.03 ± 0.004 µM; Fold reversal (IC50 without / with nobiletin) ([2]; drug +9 μM nobiletin, listed as PTX): 62.88 fold; G1 phase content (A2780 cells; 24 hours): 46.47%; G2-M content (A2780 cells; 24 hours): 31.9%; G1 phase content (A2780 cells; 48 hours): 15.57%; G2-M content (A2780 cells; 48 hours): 63.2%; G1 phase content (A2780 cells; 72 hours): 5.53%; G2-M content (A2780 cells; 72 hours): 80.07%; apoptosis induction, single treatment (A2780/T cells [3]): did not show apoptosis induction; G1 phase cells (A2780/T cells [4]): 72%; G2 phase cells (A2780/T cells [4]): 17%; inhibition of colony formation, single agent (A2780/T cells [5]): no inhibition; EC50 (A2780/T cells [6]): 4.2 µM
6 | C=C[C@H]1C[N@@]2CC[C@H]1C[C@@H]2[C@@H](O)c1ccnc2ccc(OC)cc12 [QND, quinidine] | – | – | – | – | – | – | – | – | – | – | – | – | – | – | – | intracellular accumulation of DOX (A2780/T cells [7]; 5 μM DOX): higher than that in untreated A2780/T; intracellular accumulation of Flutax-2 (A2780/T cells [7]; Flutax-2 1 μM): higher than that in untreated A2780/T
